Measurements as given in PubChem BioAssay AID504655 (Southern Research Specialized Biocontainment Screening …, 2011).
The source made the active and inactive calls. No rule for the calls is given here.

Tested on: HEp-2 cells, RSV CPE inhibition, cell viability
Assay: protection of HEp-2 cells from RSV – synthesized compounds, set 7, dose response (AID 504655)

Structure (SMILES)	IC50
Cc1ccc(Cn2c(=O)n(Cc3ccc(C(=O)N4CCOCC4)cc3)c(=O)c3ccccc32)cc1	> 50 µM (inactive)
Cc1ccc(Cl)cc1NC(=O)[C@@H]1CCCN1S(=O)(=O)c1cccc2cccnc12	6.11 µM
COCCNC(=O)c1ccc(Cn2c(=O)c3ccccc3n(Cc3ccc(C)cc3)c2=O)cc1	3.05 µM
COCCCNC(=O)c1ccc(Cn2c(=O)c3ccc(OC)cc3n(Cc3ccc(C)cc3)c2=O)cc1	> 50 µM (inactive)
COc1ccccc1CNC(=O)[C@@H]1CCCN1S(=O)(=O)c1cccc2nonc12	> 50 µM (inactive)
Cc1ccc(Cn2c(=O)n(Cc3ccc(C(=O)Nc4ccccc4)cc3)c(=O)c3ccccc32)cc1	> 50 µM (inactive)
COCCCNC(=O)c1ccc(Cn2c(=O)c3ccc(C(F)(F)F)cc3n(Cc3ccc(C)cc3)c2=O)cc1	> 50 µM (inactive)
O=C(NCc1cccc(Cl)c1)C1CCN(S(=O)(=O)c2cccc3nonc23)CC1	> 50 µM (inactive)
Cc1ccc(Cn2c(=O)n(Cc3ccc(C(=O)N(C)C)cc3)c(=O)c3ccccc32)cc1	> 50 µM (inactive)
Cc1ccc(Cn2c(=O)n(Cc3ccc(C(=O)N4CCCCC4)cc3)c(=O)c3ccccc32)cc1	> 50 µM (inactive)
COc1ccccc1NC(=O)[C@@H]1CCCN1S(=O)(=O)c1cccc2nonc12	> 50 µM (inactive)
Cc1ccc(CNC(=O)C2CCN(S(=O)(=O)c3cccc4nonc34)CC2)c(C)c1	> 50 µM (inactive)
CNC(=O)c1ccc(Cn2c(=O)c3ccccc3n(Cc3ccc(C)cc3)c2=O)cc1	2.26 µM
Cc1ccc(Cn2c(=O)n(Cc3ccc(C(=O)NCc4ccccc4)cc3)c(=O)c3ccccc32)cc1	> 50 µM (inactive)
O=C(NCc1ccc(Cl)cc1)C1CCN(S(=O)(=O)c2cccc3nonc23)CC1	> 50 µM (inactive)
Cc1ccc(Cn2c(=O)n(Cc3ccc(C(=O)N4CCCC4)cc3)c(=O)c3ccccc32)cc1	> 50 µM (inactive)
COCCCNC(=O)c1ccc(Cn2c(=O)c3ccc(C)cc3n(Cc3ccc(C)cc3)c2=O)cc1	> 50 µM (inactive)
Cc1ccc(Cn2c(=O)n(Cc3ccc(C(=O)NC4CCCCC4)cc3)c(=O)c3ccccc32)cc1	> 50 µM (inactive)
Cc1ccc(NC(=O)[C@@H]2CCCN2S(=O)(=O)c2cccc3nonc23)c(C)c1	> 50 µM (inactive)
COc1ccc(C)c(NC(=O)[C@@H]2CCCN2S(=O)(=O)c2cccc3cccnc23)c1	9.33 µM
